Source: patent US6933260B2, “Avermectin B1 derivatives having an aminosulfonyloxy substituent in the 4′-position” (Syngenta Crop Protection, Inc., priority 2001, dated 2005)

What was measured:
Assay type in all cases: in vivo
Diabrotica balteata = assay: Action against Diabrotica balteata (spray on maize seedlings); settings: 144 h, 12.5 ppm spray, larvae in the second stage, 6 days, read-out: percentage reduction in population (% activity)
Protocol: Maize seedlings are sprayed with an aqueous emulsion spray mixture comprising 12.5 ppm of the test compound and, after the spray-coating has dried, the maize seedlings are populated with 10 Diabrotica balteata larvae in the second stage and then placed in a plastics container. 6 days later, the percentage reduction in population (% activity) is determined by comparing the number of dead larvae on the treated plants with that on untreated plants.

Tetranychus urticae = assay: Action against Tetranychus urticae (spray on bean plants); settings: 144 h, 12.5 ppm spray, mixed population, 6 days at 25° C., read-out: percentage reduction in population (% activity)
Protocol: Young bean plants are populated with a mixed population of Tetranychus urticae and sprayed one day later with an aqueous emulsion spray mixture comprising 12.5 ppm of test compound. The plants are incubated for 6 days at 25° C. and subsequently evaluated. The percentage reduction in population (% activity) is determined by comparing the number of dead eggs, larvae and adults on the treated plants with that on untreated plants.

Plutella xylostella = assay: Action against Plutella xylostella caterpillars (spray on cabbage plants); settings: 72 h, 12.5 ppm spray, caterpillars in the first stage, 3 days, read-out: percentage reduction in population and percentage reduction in feeding damage (% activity)
Protocol: Young cabbage plants are sprayed with an aqueous emulsion spray mixture comprising 12.5 ppm of test compound. After the spray-coating has dried, the cabbage plants are populated with 10 caterpillars of Plutella xylostella in the first stage and placed in a plastics container. Evaluation is made 3 days later. The percentage reduction in population and the percentage reduction in feeding damage (% activity) are determined by comparing the number of dead caterpillars and the feeding damage on the treated plants with that on the untreated plants.

Spodoptera littoralis = assay: Action against Spodoptera littoralis (foliar spray on soybean plants); settings: 72 h, 12.5 ppm spray, caterpillars in the first stage, 3 days, read-out: percentage reduction in population and percentage reduction in feeding damage (% activity)
Protocol: Young soybean plants are sprayed with an aqueous emulsion spray mixture comprising 12.5 ppm of test compound and, after the spray-coating has dried, the plants are populated with 10 caterpillars of Spodoptera littoralis in the first stage and then placed in a plastics container. 3 days later, the percentage reduction in population and the percentage reduction in feeding damage (% activity) are determined by comparing the number of dead caterpillars and the feeding damage on the treated plants with that on untreated plants.

Measured: inhibition at 12.5 ppm

CCC(C)[C@H]1O[C@]2(C=C[C@@H]1C)C[C@@H]1C[C@@H](C/C=C(\C)[C@@H](O[C@H]3C[C@H](OC)[C@@H](O[C@H]4C[C@H](OC)[C@@H](OS(N)(=O)=O)[C@H](C)O4)[C@H](C)O3)[C@@H](C)/C=C/C=C3\CO[C@@H]4[C@H](O)C(C)=C[C@@H](C(=O)O1)[C@]34O)O2 (some centres unmarked) [P.1, 4″-sulfamoyloxy-avermectin B1]
> 80%: all assays above

CCC(C)[C@H]1O[C@]2(C=C[C@@H]1C)C[C@@H]1C[C@@H](C/C=C(\C)[C@@H](O[C@H]3C[C@H](OC)[C@@H](O[C@H]4C[C@H](OC)[C@@H](OS(=O)(=O)NC)[C@H](C)O4)[C@H](C)O3)[C@@H](C)/C=C/C=C3\CO[C@@H]4[C@H](O)C(C)=C[C@@H](C(=O)O1)[C@]34O)O2 (some centres unmarked) [P.2, 4″-methylaminosulfonyloxy-avermectin B1]
> 80%: all assays above

CCNS(=O)(=O)O[C@H]1[C@H](C)O[C@@H](O[C@H]2[C@H](C)O[C@@H](O[C@@H]3/C(C)=C/C[C@@H]4C[C@@H](C[C@]5(C=C[C@H](C)[C@@H](C(C)CC)O5)O4)OC(=O)[C@@H]4C=C(C)[C@@H](O)[C@H]5OC/C(=C\C=C\[C@@H]3C)[C@]54O)C[C@@H]2OC)C[C@@H]1OC (some centres unmarked) [P.3, 4″-ethylaminosulfonyloxy-avermectin B1]
> 80%: Diabrotica balteata | Tetranychus urticae | Plutella xylostella

CCC(C)[C@H]1O[C@]2(C=C[C@@H]1C)C[C@@H]1C[C@@H](C/C=C(\C)[C@@H](O[C@H]3C[C@H](OC)[C@@H](O[C@H]4C[C@H](OC)[C@@H](OS(=O)(=O)N(C)C)[C@H](C)O4)[C@H](C)O3)[C@@H](C)/C=C/C=C3\CO[C@@H]4[C@H](O)C(C)=C[C@@H](C(=O)O1)[C@]34O)O2 (some centres unmarked) [P.7, 4″-dimethylaminosulfonyloxy-avermectin B1]
> 80%: Diabrotica balteata | Tetranychus urticae | Plutella xylostella
